Laboratory results reported in the supplement of paper PMC11061612.

Key:
Assay in all cases: combination Emax (second highest fraction inhibited in the dose matrix, 72 h); higher = more inhibition; extreme values may be limits of the assay
[1] = system: BFTC-905 (Bladder Carcinoma)
In short: (§1)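 Cell lines grown in DMEM/F12 or RPMI with 10% FBS were plated in 1536-well plates and held 24 hours at 37°C, 5% CO2 before 72 hours of exposure to two-drug dose matrices, with DMSO typically at 0.2%. CellTiter-Glo 2.0 luminescence gave viability, which was converted to inhibition. Vehicle wells were set to 0 and blank wells to 1. Combination Emax is the second-highest inhibition in the matrix, and Bliss excess is the observed combination effect minus the expected EA + EB − EA·EB, where EA and EB are the single-agent effects.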

[2] = system: CAMA-1 (Breast Carcinoma)
In short: as §1

[3] = system: DND-41 (T-Lymphoblastic Leukemia)
In short: as §1

[4] = system: DiFi (Colorectal Carcinoma)
In short: as §1

[5] = system: EVSA-T (Breast Carcinoma)
In short: as §1

[6] = system: HL-60 (Acute Myeloid Leukemia)
In short: as §1

[7] = system: KYSE-180 (Esophageal Squamous Cell Carcinoma)
In short: as §1

[8] = system: L-540 (Hodgkin's Lymphoma)
In short: as §1

[9] = system: MFM-223 (Breast Carcinoma)
In short: as §1

[10] = system: MKN28 (Gastric Carcinoma)
In short: as §1

[11] = system: MOLT-16 (T-Lymphoblastic Leukemia)
In short: as §1

[12] = system: MS751 (Cervical Carcinoma)
In short: as §1

NCI-H2818 (Mesothelioma) = system: NCI-H2818 (Mesothelioma)
In short: as §1

[13] = system: SU-DHL-8 (B-Cell Non-Hodgkin's Lymphoma)
In short: as §1

[14] = system: SW837 (Colorectal Carcinoma)
In short: as §1

TC-71 (Ewing's Sarcoma) = system: TC-71 (Ewing's Sarcoma)
In short: as §1

[15] = system: TE-6 (Esophageal Squamous Cell Carcinoma)
In short: as §1

[16] = system: TOV-112D (Ovarian Carcinoma)
In short: as §1

WIL2-NS (Non-Cancerous) = system: WIL2-NS (Non-Cancerous)
In short: as §1

WM-115 (Melanoma) = system: WM-115 (Melanoma)
In short: as §1

SMILES | combination Emax [1] | combination Emax [2] | combination Emax [3] | combination Emax [4] | combination Emax [5] | combination Emax [6] | combination Emax [7] | combination Emax [8] | combination Emax [9] | combination Emax [10] | combination Emax [11] | combination Emax [12] | combination Emax (NCI-H2818 (Mesothelioma)) | combination Emax [13] | combination Emax [14] | combination Emax (TC-71 (Ewing's Sarcoma)) | combination Emax [15] | combination Emax [16] | combination Emax (WIL2-NS (Non-Cancerous)) | combination Emax (WM-115 (Melanoma))
NC1(C(=O)N[C@@H](CCO)c2ccc(Cl)cc2)CCN(c2ncnc3[nH]ccc23)CC1 [Capivasertib] + COc1nnc2ccc(N3CCC(c4ccc(OCCN5CCN(C)C(=O)[C@H]5C)cc4)CC3)nn12 [AZD5153] (first compound max 10 µM, 7x7, partner max 1 µM) | 0.681 | 0.928 | 0.679 | 0.718 | 1 | 1 | 0.616 | 0.605 | 0.852 | 0.488 | 1 | 0.794 | 0.238 | 0.899 | 0.538 | 0.797 | 0.754 | 0.665 | 0.848 | 0.778
NC1(C(=O)N[C@@H](CCO)c2ccc(Cl)cc2)CCN(c2ncnc3[nH]ccc23)CC1 [Capivasertib] + C[C@@H]1COCCN1C2=NC(=NC(=C2)C3(CC3)[S@](=N)(=O)C)C4=C5C=CNC5=NC=C4 [AZD6738] (first compound max 10 µM, 7x7, partner max 10 µM) | 0.623 | 0.684 | 0.886 | 0.779 | 0.959 | 0.805 | 0.554 | 0.94 | 0.888 | 0.296 | 1 | 0.498 | 0.437 | 0.964 | 0.385 | 0.959 | 0.754 | 0.718 | 0.919 | 0.628
NC1(C(=O)N[C@@H](CCO)c2ccc(Cl)cc2)CCN(c2ncnc3[nH]ccc23)CC1 [Capivasertib] + Cn1cnc2c(F)c(Nc3ccc(Br)cc3Cl)c(C(=O)NOCCO)cc21 [Selumetinib] (first compound max 10 µM, 7x7, partner max 10 µM) | 0.746 | 0.693 | 0.233 | 0.905 | 0.947 | 0.874 | 0.48 | 0.188 | 0.894 | 0.241 | 0.805 | 0.263 | 0.318 | 0.0919 | 0.603 | 0.438 | 0.736 | 0.313 | 0.771 | 0.885
Cc1nc(Nc2ncc(C(=O)Nc3c(C)cccc3Cl)s2)cc(N2CCN(CCO)CC2)n1 [Dasatinib] + CC(=O)Nc1cccc(-n2c(=O)n(C3CC3)c(=O)c3c(Nc4ccc(I)cc4F)n(C)c(=O)c(C)c32)c1 [Trametinib] (first compound max 2 µM, 7x7, partner max 1 µM) | 0.863 | 0.127 | 0.263 | 0.784 | 0.176 | 0.703 | 0.411 | 0.148 | 0.561 | 0.417 | 0.326 | 0.282 | 0.582 | 0.0526 | 0.764 | 0.146 | 0.535 | 0.749 | 0.721 | 0.805
